Data published in patent US20100078393A1, “BIOCIDAL COMPOSITIONS AND METHODS OF USE” (priority 2008, published 2010).

How the values were obtained:
[1] = tested on: Bacillus subtillus ATCC 8473; assay: Biocidal efficacy against aerobic bacteria, log reduction after 1 hour at 37° C.; type: cell-based; settings: for Concentration required to achieve 3 log bacterial reduction in 1 hour, used in combination: active weight ratio 1:6; for Concentration required to achieve 3 log bacterial reduction in 1 hour, used alone: ppm active
Procedure: (§1) The synergy indexes reported in the following examples are calculated using the following equation:
(§2) Synergy Index=Ca/CA+Cb/CB
(§3) A synergy index (SI) of 1 indicates additivity, a synergy index of less than 1 indicates synergy, and a synergy index greater than 1 indicates antagonism.
(§4) Various methods known to those skilled in the art can be used for evaluating biocidal efficacy. In some of the examples below, a serial dilution technique is used, which determines viable bacteria remaining after a treatment regimen. The method is based or adapted (e.g., for high temperature testing or for the presence of sulfide) from the methodology described in inventor's pending international application PCT/US08/075755, filed Sep. 10, 2008, which is incorporated herein by reference.
(§5) A sterile NaCl solution (0.85%) is contaminated with bacterial inoculums at final bacterial concentration of approximately 10^6 CFU/ml. Then, biocide solution (single or in combination) is added into the bacterial suspension at various concentrations and immediately mixed well. After the mixtures are incubated at 37° C. for 1 hour, the viable bacteria left in the solution are determined. Bacterial log reduction is then calculated.

[2] = tested on: Staphylococcus aureus ATCC 6538; assay: as above; type: cell-based; settings: for Concentration required to achieve 3 log bacterial reduction in 1 hour, used in combination: active weight ratio 1:6; for Concentration required to achieve 3 log bacterial reduction in 1 hour, used alone: ppm active
Procedure: as §1, §2, §3, §4, §5

[3] = tested on: Enterobacter aerogenes ATCC 13048; assay: as above; type: cell-based; settings: for Concentration required to achieve 3 log bacterial reduction in 1 hour, used in combination: active weight ratio 1:6; for Concentration required to achieve 3 log bacterial reduction in 1 hour, used alone: ppm active
Procedure: as §1, §2, §3, §4, §5

[4] = tested on: Klebsiella pneumoniae ATCC 8308; assay: as above; type: cell-based; settings: for Concentration required to achieve 3 log bacterial reduction in 1 hour, used in combination: active weight ratio 1:6; for Concentration required to achieve 3 log bacterial reduction in 1 hour, used alone: ppm active
Procedure: as §1, §2, §3, §4, §5

[5] = tested on: Pseudomonas putida ATCC 49128; assay: as above; type: cell-based; settings: for Concentration required to achieve 3 log bacterial reduction in 1 hour, used in combination: active weight ratio 1:6; for Concentration required to achieve 3 log bacterial reduction in 1 hour, used alone: ppm active
Procedure: as §1, §2, §3, §4, §5

[6] = tested on: Pseudomonas aeruginosa ATCC 10145; assay: as above; type: cell-based; settings: for Concentration required to achieve 3 log bacterial reduction in 1 hour, used in combination: active weight ratio 1:6; for Concentration required to achieve 3 log bacterial reduction in 1 hour, used alone: ppm active
Procedure: as §1, §2, §3, §4, §5

[7] = tested on: Escherichia coli ATCC 11229; assay: as above; type: cell-based; settings: for Concentration required to achieve 3 log bacterial reduction in 1 hour, used in combination: active weight ratio 1:6; for Concentration required to achieve 3 log bacterial reduction in 1 hour, used alone: ppm active
Procedure: as §1, §2, §3, §4, §5

[8] = tested on: oil field isolated anaerobic SRB consortium; assay: Biocidal efficacy against anaerobic SRB at 40° C., serial dilution method; type: cell-based, sulfate-reducing bacteria (SRB); settings: for Concentration required for complete bacterial kill in 1 hour, used alone / Concentration required for 3 log bacterial kill in 2 hours, used alone: ppm active; for Concentration required for complete bacterial kill in 1 hour, used alone: 40° C.; for Concentration required for 3 log bacterial kill in 2 hours, used in combination: concentration of the labelled component
Procedure: as §1, §2, §3, §4
Inside an anaerobic chamber (Bactron III), a deaerated sterile salt solution (3.1183 g of NaCl, 1.3082 mg of NaHCO3, 47.70 mg of KCl, 72.00 mg of CaCl2, 54.49 mg of MgSO4, 172.28 mg of Na2SO4, 43.92 mg of Na2CO3 in 1 L water) is contaminated with an oil field isolated anaerobic SRB consortium at final bacterial concentrations of about 10^7 CFU/mL. […] […] Bacterial log reduction is then calculated.

[9] = concentration of the labelled component in glutaraldehyde + 4,4-dimethyl-oxazolidine combination
[10] = concentration of the labelled component in glutaraldehyde + 7-ethyl-bicyclooxazolidine combination

SMILES | Concentration required to achieve 3 log bacterial reduction in 1 hour, used in combination [1, 9] | Concentration required to achieve 3 log bacterial reduction in 1 hour, used alone [1] | Concentration required to achieve 3 log bacterial reduction in 1 hour, used in combination [2, 9] | Concentration required to achieve 3 log bacterial reduction in 1 hour, used alone [2] | Concentration required to achieve 3 log bacterial reduction in 1 hour, used in combination [3, 9] | Concentration required to achieve 3 log bacterial reduction in 1 hour, used alone [3] | Concentration required to achieve 3 log bacterial reduction in 1 hour, used in combination [4, 9] | Concentration required to achieve 3 log bacterial reduction in 1 hour, used alone [4] | Concentration required to achieve 3 log bacterial reduction in 1 hour, used in combination [5, 9] | Concentration required to achieve 3 log bacterial reduction in 1 hour, used alone [5] | Concentration required to achieve 3 log bacterial reduction in 1 hour, used in combination [6, 9] | Concentration required to achieve 3 log bacterial reduction in 1 hour, used alone [6] | Concentration required to achieve 3 log bacterial reduction in 1 hour, used in combination [7, 9] | Concentration required to achieve 3 log bacterial reduction in 1 hour, used alone [7] | Concentration required for complete bacterial kill in 1 hour, used alone [8] | Concentration required to achieve 3 log bacterial reduction in 1 hour, used in combination [1, 10] | Concentration required to achieve 3 log bacterial reduction in 1 hour, used in combination [2, 10] | Concentration required to achieve 3 log bacterial reduction in 1 hour, used in combination [3, 10] | Concentration required to achieve 3 log bacterial reduction in 1 hour, used in combination [4, 10] | Concentration required to achieve 3 log bacterial reduction in 1 hour, used in combination [5, 10] | other results
CC1(C)COCN1 [4,4-dimethyl-oxazolidine] | 111.3 ppm | 296.6 ppm | 111.3 ppm | 296.6 ppm | 111.3 ppm | 296.6 ppm | 74.2 ppm | 197.8 ppm | 111.3 ppm | 296.6 ppm | 111.3 ppm | 296.6 ppm | 111.3 ppm | 197.8 ppm | >1600.0 ppm |  |  |  |  |  | 
CCC12COCN1COC2 [7-ethyl-bicyclooxazolidine, 5-ethyl-1-aza-3,7-dioxabicyclo[3.3.0]octane] |  | 296.6 ppm |  | 296.6 ppm |  | 296.6 ppm |  | 197.8 ppm |  | 296.6 ppm |  | 296.6 ppm |  | 296.6 ppm |  | 74.2 ppm | 111.3 ppm | 111.3 ppm | 74.2 ppm | 111.3 ppm | Concentration required to achieve 3 log bacterial reduction in 1 hour, used in combination [6, 10]: 111.3 ppm; Concentration required to achieve 3 log bacterial reduction in 1 hour, used in combination [7, 10]: 74.2 ppm; Concentration required for 3 log bacterial kill in 2 hours, used in combination ([8]; glutaraldehyde:7-ethyl-bicyclooxazolidine weight ratio 1:1): 5.9 ppm; Concentration required for 3 log bacterial kill in 2 hours, used in combination ([8]; glutaraldehyde:7-ethyl-bicyclooxazolidine weight ratio 1:2): 11.9 ppm; Concentration required for 3 log bacterial kill in 2 hours, used in combination ([8]; glutaraldehyde:7-ethyl-bicyclooxazolidine weight ratio 1:5): 29.6 ppm; Concentration required for 3 log bacterial kill in 2 hours, used in combination ([8]; glutaraldehyde:7-ethyl-bicyclooxazolidine weight ratio 1:10): 39.5 ppm; Concentration required for 3 log bacterial kill in 2 hours, used in combination ([8]; glutaraldehyde:7-ethyl-bicyclooxazolidine weight ratio 1:20): 52.7 ppm; Concentration required for 3 log bacterial kill in 2 hours, used in combination ([8]; glutaraldehyde:7-ethyl-bicyclooxazolidine weight ratio 2:1): 4.4 ppm; Concentration required for 3 log bacterial kill in 2 hours, used in combination ([8]; glutaraldehyde:7-ethyl-bicyclooxazolidine weight ratio 5:1): 1.2 ppm; Concentration required for 3 log bacterial kill in 2 hours, used in combination ([8]; glutaraldehyde:7-ethyl-bicyclooxazolidine weight ratio 10:1): 0.6 ppm; Concentration required for 3 log bacterial kill in 2 hours, used in combination ([8]; glutaraldehyde:7-ethyl-bicyclooxazolidine weight ratio 20:1): 0.3 ppm; Concentration required for 3 log bacterial kill in 2 hours, used alone [8]: >2025 ppm
O=CCCCC=O [Glutaraldehyde] | 18.6 ppm | 44.5 ppm | 18.6 ppm | 44.5 ppm | 18.6 ppm | 44.5 ppm | 12.4 ppm | 44.5 ppm | 18.6 ppm | 44.5 ppm | 18.6 ppm | 44.5 ppm | 18.6 ppm | 44.5 ppm | 26.3 ppm | 12.4 ppm | 18.6 ppm | 18.6 ppm | 12.4 ppm | 18.6 ppm | Concentration required to achieve 3 log bacterial reduction in 1 hour, used in combination [6, 10]: 18.6 ppm; Concentration required to achieve 3 log bacterial reduction in 1 hour, used in combination [7, 10]: 12.4 ppm; Concentration required for 3 log bacterial kill in 2 hours, used alone [8]: 8.9 ppm
